According to patent publication US20130281504A1, “Reduction of Microglia-Mediated Neurotoxicity by KCa3.1 Inhibition” (THE REGENTS OF THE UNIVERSITY OF CALIFORNIA, priority 2010, published 2013):
“And” between values parts separate entries of the source, which are not always exact repeats. Identical values can stand only once.

Key:
microglia = experiment: AβO-induced microglia proliferation/activation (cell number); format: cell-based, mouse; conditions: soluble AD hippocampus extracts
[1] = Plasma protein binding by ultrafiltration; format: in vitro ADME, rat; conditions: rat plasma spiked with 50 and 100 μM
Description: (§1) The centrifugate (=free TRAM-34) was directly analyzed for TRAM-34 by HPLC-MS. The retentate was collected by inverting the filter into an Eppendorf tube and spinning at 14000 rpm for 15 min.

plasma protein = experiment: Plasma protein binding by ultrafiltration; format: in vitro ADME, rat
Description: as §1

[2] = system: middle cerebral artery occlusion (MCAO); experiment: MCAO with 7 days of reperfusion, treatment started 2 h after reperfusion; format: in vivo, rat; conditions: 10 mg/kg twice daily 7 days from 2 h after reperfusion
Excerpt: Adult male Wistar rats weighing 160-180 g were purchased from Charles River (Wilmington, Mass.), acclimatized to the new vivarium for 5-7 days and used for the surgery when they weighed 200-230 g. Rats were anesthetized using box induction with 5% isoflurane and then maintained on 0.5%-1.5% isoflurane in medical grade oxygen via a facemask. In order to assure consistent reduction of cerebral blood flow (CBF) throughout the procedure, we affixed a small hand-made adaptor for the Laser Doppler probe (Moor Instruments, Wilmington, Del.) to the surface of the skull. The center of the adapter was 5 mm lateral to the central fusion line and 2.5 mm posterior to bregma. […] Neurological deficits were scored according to a 4-score test and a tactile and/or proprioceptive limb-placing test as follows: 1) 4-score test (higher score for more severe neurological deficits): 0=no apparent deficit; 1=contralateral forelimb is consistently flexed during suspension by holding the tail; 2=decreasing grip ability on the contralateral forelimb while tail pulled; 3=spontaneous movement in all directions but circling to contralateral side when pulled by the tail; 4=spontaneous contralateral circling or depressed level of consciousness. […] The paw was pulled down and away from the platform edge, and the ability to retrieve and place the paw on the table surface upon sudden release was assessed. […]

[3] = system: middle cerebral artery occlusion (MCAO); experiment: MCAO with 7 days of reperfusion, treatment started 12 h after reperfusion; format: in vivo, rat; design: key to neurological deficit, 4-score system: 0 = no deficit to 4 = most severe deficit; key to neurological deficit, 14-score system: 14-point limb placing score; lower = more severe deficit; conditions: for mean infarct size (H&E defined lesion area): controls 22.6±3.6%
Excerpt: Adult male Wistar rats weighing 160-180 g were purchased from Charles River (Wilmington, Mass.), acclimatized to the new vivarium for 5-7 days and used for the surgery when they weighed 200-230 g. Rats were anesthetized using box induction with 5% isoflurane and then maintained on 0.5%-1.5% isoflurane in medical grade oxygen via a facemask. In order to assure consistent reduction of cerebral blood flow (CBF) throughout the procedure, we affixed a small hand-made adaptor for the Laser Doppler probe (Moor Instruments, Wilmington, Del.) to the surface of the skull. The center of the adapter was 5 mm lateral to the central fusion line and 2.5 mm posterior to bregma. Instant adhesive and dental cement were applied to the base and around the edges of the small plastic adapter to hold the Doppler probe. The adapter with the attached probe remained in place throughout the MCAO surgery to confirm continuous occlusion and later the establishment of reperfusion. Focal cerebral ischemia was then induced by occlusion of the left middle cerebral artery (MCA). The left common carotid artery was surgically exposed, the external carotid artery was ligated distally from the common carotid artery, and a silicone rubber coated nylon monofilament with a tip diameter of 0.43±0.02 mm (Doccol Corp., Redlands, Calif.) was inserted into the external carotid artery and advanced into the internal carotid artery to block the origin of the middle cerebral artery (when maximum CBF reduction observed). The filament was kept in place for 90 min and then withdrawn and removed from the blood vessel to restore blood supply. […] Neurological deficits were scored according to a 4-score test and a tactile and/or proprioceptive limb-placing test as follows: 1) 4-score test (higher score for more severe neurological deficits): 0=no apparent deficit; 1=contralateral forelimb is consistently flexed during suspension by holding the tail; 2=decreasing grip ability on the contralateral forelimb while tail pulled; 3=spontaneous movement in all directions but circling to contralateral side when pulled by the tail; 4=spontaneous contralateral circling or depressed level of consciousness. 2) 14-score limb placing test (lower score for more severe neurological deficits): Proprioception, forward extension, lateral abduction, and adduction were tested with vision or tactile stimuli. For visual limb placing, rats were held and slowly moved forward or lateral toward the top of a table. Normal rats placed both forepaws on the tabletop. Tactile forward and lateral limb placing were tested by lightly contacting the table edge with the dorsal or lateral surface of a rat's paw while avoiding whisker contact and covering the eyes to avoid vision. For proprioceptive hind limb placing, each rat was pushed along the edge of an elevated platform in order to test proprioceptive hind limb adduction. The paw was pulled down and away from the platform edge, and the ability to retrieve and place the paw on the table surface upon sudden release was assessed. For each test, limb placing scores were 0=no placing; 1=incomplete and/or delayed (>2 seconds) placing; or 2=immediate and complete placing. For each body side, the maximum summed visual limb placing score was 4 and the maximum summed tactile and proprioceptive limb placing score, including the platform test, was 10.
Rats were euthanized with an overdose of isoflurane. Blood samples for determination of electrolytes, pH, pCO2, glucose and hemoglobin (I-STAT; Abbott, Princeton, N.J.) were drawn from the vena cava and brains quickly removed and sectioned into eight 2-mm thick slices starting from the frontal pole. Slices were then fixed in 10% buffer formalin embedded in paraffin and sectioned at 5 Sections were stained with hematoxylin & eosin and scanned. […]

[4] = Physiological parameters by I-STAT in venous blood of MCAO rats; format: in vivo, rat; conditions: ±SD
Description: […] […] Slices were then fixed in 10% buffer formalin embedded in paraffin and sectioned at 5 Sections were stained with hematoxylin & eosin and scanned. The resulting jpg images were analyzed in Adobe Photoshop CS3 for infarct area using the Magnetic Lasso tool to outline the area and the Histogram tool to determine the number of pixels in the respective area. Percent infarct for each slice was calculated as: (pixels in […]/pixels in whole control hemisphere)×100. Percentage of total infarct area of whole hemisphere was calculated as: (summation of pixels in infarct from 8 slices/summation of pixels in whole control hemisphere from 8 slices)×100. The degree of brain shrinkage was calculated from the same data.

[5] = as above; format: in vivo, rat; conditions: After Reperfusion, ±SD
[6] = After Reperfusion, TRAM-34 10 mg/kg
[7] = After Reperfusion, TRAM-34 40 mg/kg
[8] = Day-7 after MCAO, TRAM-34 10 mg/kg
[9] = Day-7 after MCAO, TRAM-34 40 mg/kg

Clc1ccccc1C(c1ccccc1)(c1ccccc1)n1cccn1 [TRAM-34, 1-[(2-chlorophenyl)diphenylmethyl]-1H-pyrazole]
microglia activation / mitogenic effect induced by human brain AβO (microglia): blocked | fraction unbound [1]: 0.02 | unbound (=free) fraction (plasma protein; rat plasma): 2.0±0.4% and 2% | plasma protein binding (plasma protein; rat plasma spiked with 50 and 100 μM): 98% | amount of activated (ED1+) microglia/macrophages in infarcted hemisphere [2]: reduced | mean infarct area, % of ipsolateral triphenyltetrazolium chloride positive hemisphere area ([2]; control 18.8±3.5%, mean±SEM, P=0.007): 6.6±1.9% | neurological deficit, 14-score system ([3]; 10 mg/kg group, 12 h after reperfusion (start of treatment), vehicle 4.3±0.94): 4.8±0.63 | neurological deficit, 4-score system ([3]; 10 mg/kg group, 12 hours after reperfusion (start of treatment), vehicle 3.1±0.20): 3.3±0.50 | neurological deficit, 4-score system ([3]; 10 mg/kg, 196 h (=7 days) after reperfusion, vehicle 1.5±0.30, P=0.24): 0.8±0.10 | neurological deficit, 14-score system ([3]; 10 mg/kg, 196 h (=7 days) after reperfusion, vehicle 7.5±0.46, P=0.004): 9.8±0.01 | microglia activation (ED1+ area) ([3]; 10 mg/kg, delayed administration): did not result in a significant reduction | brain shrinkage ([3]; 10 mg/kg, P=0.11, not significant): tended to reduce | number of TUNEL-positive cells in cortex and striatum ([3]; 10 mg/kg, P=0.143 cortex, 0.230 striatum): did not reach statistical significance | mean infarct size (H&E defined lesion area) ([3]; 10 mg/kg, mean±SEM, P=0.039): 11.3±2.8% | neurological deficit, 14-score system ([3]; 40 mg/kg group, 12 h after reperfusion (start of treatment), vehicle 4.3±0.94): 3.4±0.46 | neurological deficit, 4-score system ([3]; 40 mg/kg group, 12 hours after reperfusion (start of treatment), vehicle 3.1±0.20): 3.0±0.80 | neurological deficit, 4-score system ([3]; 40 mg/kg, day-7 / 196 h after reperfusion, vehicle 1.5±0.30, P=0.02): 0.5 and 0.4±0.01 | neurological deficit, 14-score system ([3]; 40 mg/kg, day-7 / 196 h after reperfusion, vehicle 7.5±0.46, P<0.001): 11±0.38 and 12 | number of apoptotic (TUNEL positive) cells in cortex and striatum ([3]; 40 mg/kg, P=0.0067 cortex, 0.033 striatum): significantly reduced | average number of surviving NeuN+ neurons in the infarcted hemisphere ([3]; 40 mg/kg, P=0.052): increase | mean infarct size (H&E defined lesion area) ([3]; 40 mg/kg, P=0.004): 8.1±1.9% | ED1+ area in the infarcted hemisphere ([3]; 40 mg/kg, vehicle 3770.6±594.2, P=0.03, mean±SEM): 1632.6±363.75 pixels/mm^2 | reduction of infarct area (H&E, day-7) ([3]; 10 or 40 mg/kg i.p. twice daily 7 days from 12 h after reperfusion, both doses): ~50% | HCO3^− [4, 6]: 33.8 ± 6.4 mmol/L | Hemoglobin [4, 6]: 14.3 ± 1.5 g/dL | K^+ [4, 6]: 6.3 ± 1.1 mmol/L | pCO2 [4, 6]: 66.6 ± 28.3 mm Hg | pH [4, 6]: 7.34 ± 0.1 | Hemoglobin [4, 7]: 14.5 ± 1.4 g/dL | K^+ [4, 7]: 5.7 ± 0.5 mmol/L | Na^+ [4, 7]: 135.5 ± 2.3 mmol/L | pCO2 [4, 7]: 60.8 ± 33.4 mm Hg | BUN [4, 8]: 18.7 ± 6.8 mg/dL | Glucose [4, 8]: 185.2 ± 41.2 mg/dL | HCO3^− [4, 8]: 29.7 ± 2.5 mmol/L | Hemoglobin [4, 8]: 12.7 ± 2.1 g/dL | K^+ [4, 8]: 4.8 ± 1.1 mmol/L | Na^+ [4, 8]: 137.7 ± 4.1 mmol/L | pCO2 [4, 8]: 58.1 ± 12.7 mm Hg | pH [4, 8]: 7.3 ± 0.06 | BUN [4, 9]: 19.6 ± 4.7 mg/dL | Glucose [4, 9]: 201.1 ± 40.1 mg/dL | HCO3^− [4, 9]: 29.2 ± 1.3 mmol/L | Hemoglobin [4, 9]: 13.3 ± 1.5 g/dL | K^+ [4, 9]: 4.2 ± 0.3 mmol/L | Na^+ [4, 9]: 138.8 ± 3.5 mmol/L | pCO2 [4, 9]: 49.3 ± 7.3 mm Hg | pH [4, 9]: 7.4 ± 0.07 | BUN ([5]; TRAM-34 10 mg/kg): 12.8 ± 7.2 mg/dL | Glucose ([5]; TRAM-34 10 mg/kg): 179.2 ± 48.2 mg/dL | Na^+ ([5]; TRAM-34 10 mg/kg): 134.4 ± 2.3 mmol/L | BUN ([5]; TRAM-34 40 mg/kg): 22.2 ± 4.0 mg/dL | Glucose ([5]; TRAM-34 40 mg/kg): 171.8 ± 54.3 mg/dL | HCO3^− ([5]; TRAM-34 40 mg/kg): 32.5 ± 5.7 mmol/L | pH ([5]; TRAM-34 40 mg/kg): 7.4 ± 0.13
